Experimental data as given in article PMC4457528, “Identification of Novel Small Molecule Inhibitors of Oncogenic RET Kinase” (PLoS ONE, 2015).

Columns and labels:
Assay in all cases: KinomeScan kinase panel, single concentration 10 µM
Assay type in all cases: binding
[1] = molecular target: T1, KinomeScan kinase panel (Homo sapiens, UniProt P49840); conditions: GSK3A, 10 µM; read-out: score (%)
T1 construct: purchased DiscoveRx (KinomeScan)

[2] = molecular target: T2, KinomeScan kinase panel (Homo sapiens, UniProt P42684); conditions: ABL2, 10 µM; read-out: score (%)
T2 construct: purchased DiscoveRx (KinomeScan)

[3] = molecular target: T3, KinomeScan kinase panel (Homo sapiens, UniProt Q8TDX7); conditions: NEK7, 10 µM; read-out: score (%)
T3 construct: purchased DiscoveRx (KinomeScan)

[4] = molecular target: T4, KinomeScan kinase panel (Homo sapiens, UniProt O14920); conditions: IKK-beta, 10 µM; read-out: score (%)
T4 construct: purchased DiscoveRx (KinomeScan)
T4 sequence (O14920 1-756): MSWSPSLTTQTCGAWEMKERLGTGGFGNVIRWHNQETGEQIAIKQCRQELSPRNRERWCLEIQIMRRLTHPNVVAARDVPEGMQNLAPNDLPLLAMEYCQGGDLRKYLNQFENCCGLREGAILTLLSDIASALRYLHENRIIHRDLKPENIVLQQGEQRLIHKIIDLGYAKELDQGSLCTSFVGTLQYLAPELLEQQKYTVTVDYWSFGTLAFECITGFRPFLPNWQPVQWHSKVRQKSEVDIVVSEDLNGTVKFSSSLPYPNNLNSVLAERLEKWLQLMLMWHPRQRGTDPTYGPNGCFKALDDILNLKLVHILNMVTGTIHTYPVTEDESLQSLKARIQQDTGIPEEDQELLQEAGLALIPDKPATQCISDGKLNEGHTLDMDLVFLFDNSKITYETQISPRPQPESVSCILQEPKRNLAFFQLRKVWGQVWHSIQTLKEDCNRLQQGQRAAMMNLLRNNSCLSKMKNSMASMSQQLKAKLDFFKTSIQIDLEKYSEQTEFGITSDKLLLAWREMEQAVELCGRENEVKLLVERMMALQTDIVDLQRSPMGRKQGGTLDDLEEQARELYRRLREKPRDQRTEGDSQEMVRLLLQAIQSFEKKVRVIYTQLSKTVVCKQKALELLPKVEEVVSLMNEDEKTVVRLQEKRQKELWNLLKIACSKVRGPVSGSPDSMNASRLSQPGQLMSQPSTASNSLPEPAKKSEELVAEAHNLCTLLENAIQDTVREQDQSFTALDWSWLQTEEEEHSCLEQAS

[5] = molecular target: T5, KinomeScan kinase panel (Homo sapiens, UniProt P49137); conditions: MAPKAPK2, 10 µM; read-out: score (%)
T5 construct: purchased DiscoveRx (KinomeScan)

[6] = molecular target: T6, KinomeScan kinase panel (Homo sapiens, UniProt Q9UQ88); conditions: CDC2L2, 10 µM; read-out: score (%)
T6 construct: purchased DiscoveRx (KinomeScan)
T6 sequence (Q9UQ88 1-783): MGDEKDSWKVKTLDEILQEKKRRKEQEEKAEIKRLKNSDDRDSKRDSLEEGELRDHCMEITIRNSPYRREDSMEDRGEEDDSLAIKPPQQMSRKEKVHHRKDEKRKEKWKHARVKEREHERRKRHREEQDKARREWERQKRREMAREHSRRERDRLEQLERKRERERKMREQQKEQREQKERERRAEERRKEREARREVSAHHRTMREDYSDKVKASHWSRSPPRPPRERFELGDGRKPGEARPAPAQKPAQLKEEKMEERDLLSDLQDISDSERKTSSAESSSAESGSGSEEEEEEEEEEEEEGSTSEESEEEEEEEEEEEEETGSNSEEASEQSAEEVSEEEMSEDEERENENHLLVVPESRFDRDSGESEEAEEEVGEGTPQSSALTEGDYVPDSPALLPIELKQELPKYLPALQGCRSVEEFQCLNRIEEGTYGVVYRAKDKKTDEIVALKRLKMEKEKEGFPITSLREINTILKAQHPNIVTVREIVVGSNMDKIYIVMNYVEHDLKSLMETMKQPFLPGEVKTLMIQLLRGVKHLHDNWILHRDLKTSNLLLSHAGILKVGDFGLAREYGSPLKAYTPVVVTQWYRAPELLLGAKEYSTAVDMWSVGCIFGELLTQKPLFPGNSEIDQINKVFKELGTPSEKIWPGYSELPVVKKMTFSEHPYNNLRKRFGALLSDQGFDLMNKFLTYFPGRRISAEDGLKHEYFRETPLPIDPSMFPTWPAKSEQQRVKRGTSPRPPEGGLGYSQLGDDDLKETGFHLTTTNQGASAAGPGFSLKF

[7] = molecular target: T7, KinomeScan kinase panel (Homo sapiens, UniProt O00750); conditions: PIK3C2B, 10 µM; read-out: score (%)
T7 construct: purchased DiscoveRx (KinomeScan)

[8] = molecular target: T8, KinomeScan kinase panel (Homo sapiens, UniProt Q8NFD2); conditions: ANKK1, 10 µM; read-out: score (%)
T8 construct: purchased DiscoveRx (KinomeScan)
T8 sequence (Q8NFD2 1-765): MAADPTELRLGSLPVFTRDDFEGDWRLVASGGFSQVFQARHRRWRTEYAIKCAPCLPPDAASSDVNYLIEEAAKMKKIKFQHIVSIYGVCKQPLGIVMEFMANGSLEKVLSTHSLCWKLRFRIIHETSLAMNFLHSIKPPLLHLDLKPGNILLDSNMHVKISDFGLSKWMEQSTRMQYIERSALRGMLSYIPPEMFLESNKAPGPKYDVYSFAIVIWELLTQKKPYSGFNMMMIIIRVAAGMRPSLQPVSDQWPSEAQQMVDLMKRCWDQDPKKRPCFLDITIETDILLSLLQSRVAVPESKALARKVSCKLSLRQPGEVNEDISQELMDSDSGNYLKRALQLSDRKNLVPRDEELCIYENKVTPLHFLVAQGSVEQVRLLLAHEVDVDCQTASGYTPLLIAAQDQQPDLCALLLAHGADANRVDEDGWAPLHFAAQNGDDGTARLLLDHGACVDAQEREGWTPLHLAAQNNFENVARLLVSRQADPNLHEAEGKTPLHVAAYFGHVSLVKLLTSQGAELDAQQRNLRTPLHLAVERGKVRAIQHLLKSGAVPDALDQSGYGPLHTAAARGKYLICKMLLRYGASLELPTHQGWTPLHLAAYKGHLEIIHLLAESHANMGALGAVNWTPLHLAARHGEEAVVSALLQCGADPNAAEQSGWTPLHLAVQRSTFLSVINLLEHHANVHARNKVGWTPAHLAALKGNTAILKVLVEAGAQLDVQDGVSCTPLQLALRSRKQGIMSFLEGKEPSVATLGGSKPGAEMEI

T3 sequence (Q8TDX7 whole entry): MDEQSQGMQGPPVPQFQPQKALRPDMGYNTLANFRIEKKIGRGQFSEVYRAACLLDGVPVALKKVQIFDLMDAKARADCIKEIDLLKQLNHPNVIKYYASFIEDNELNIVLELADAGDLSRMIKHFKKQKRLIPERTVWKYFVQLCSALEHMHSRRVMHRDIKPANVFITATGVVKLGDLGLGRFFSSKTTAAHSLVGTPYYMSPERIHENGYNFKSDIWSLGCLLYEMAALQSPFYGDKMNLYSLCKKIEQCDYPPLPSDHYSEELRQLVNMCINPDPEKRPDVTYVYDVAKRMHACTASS
T2 sequence (P42684 whole entry): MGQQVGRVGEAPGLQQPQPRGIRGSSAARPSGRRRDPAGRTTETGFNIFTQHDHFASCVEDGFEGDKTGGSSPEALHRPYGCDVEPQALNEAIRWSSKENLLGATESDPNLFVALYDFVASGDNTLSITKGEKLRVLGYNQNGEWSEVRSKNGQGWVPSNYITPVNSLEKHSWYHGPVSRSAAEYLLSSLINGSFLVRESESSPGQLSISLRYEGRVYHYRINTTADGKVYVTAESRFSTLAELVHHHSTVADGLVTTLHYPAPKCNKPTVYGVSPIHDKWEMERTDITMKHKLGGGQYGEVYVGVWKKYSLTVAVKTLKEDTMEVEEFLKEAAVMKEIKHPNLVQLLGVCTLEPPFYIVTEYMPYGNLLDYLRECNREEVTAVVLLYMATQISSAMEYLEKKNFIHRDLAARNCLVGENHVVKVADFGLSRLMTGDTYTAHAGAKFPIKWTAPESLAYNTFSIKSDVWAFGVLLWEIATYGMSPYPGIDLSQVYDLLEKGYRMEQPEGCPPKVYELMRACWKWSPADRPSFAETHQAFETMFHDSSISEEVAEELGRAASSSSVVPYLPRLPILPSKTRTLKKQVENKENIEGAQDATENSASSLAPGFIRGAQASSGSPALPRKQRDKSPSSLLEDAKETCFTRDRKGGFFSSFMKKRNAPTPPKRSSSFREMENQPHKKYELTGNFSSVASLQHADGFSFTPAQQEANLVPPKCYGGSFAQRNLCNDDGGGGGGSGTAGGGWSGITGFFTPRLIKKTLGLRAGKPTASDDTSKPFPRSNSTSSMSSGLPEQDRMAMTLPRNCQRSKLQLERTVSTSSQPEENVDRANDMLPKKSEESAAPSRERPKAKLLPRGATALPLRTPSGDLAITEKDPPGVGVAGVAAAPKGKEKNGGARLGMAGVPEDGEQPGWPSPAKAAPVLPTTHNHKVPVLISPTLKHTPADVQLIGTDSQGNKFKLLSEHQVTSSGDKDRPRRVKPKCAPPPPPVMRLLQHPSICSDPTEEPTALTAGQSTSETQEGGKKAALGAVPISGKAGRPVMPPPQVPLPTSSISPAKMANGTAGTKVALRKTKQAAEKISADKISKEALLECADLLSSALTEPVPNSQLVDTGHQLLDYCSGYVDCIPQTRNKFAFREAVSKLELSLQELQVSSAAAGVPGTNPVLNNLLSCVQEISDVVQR
T7 sequence (O00750 whole entry): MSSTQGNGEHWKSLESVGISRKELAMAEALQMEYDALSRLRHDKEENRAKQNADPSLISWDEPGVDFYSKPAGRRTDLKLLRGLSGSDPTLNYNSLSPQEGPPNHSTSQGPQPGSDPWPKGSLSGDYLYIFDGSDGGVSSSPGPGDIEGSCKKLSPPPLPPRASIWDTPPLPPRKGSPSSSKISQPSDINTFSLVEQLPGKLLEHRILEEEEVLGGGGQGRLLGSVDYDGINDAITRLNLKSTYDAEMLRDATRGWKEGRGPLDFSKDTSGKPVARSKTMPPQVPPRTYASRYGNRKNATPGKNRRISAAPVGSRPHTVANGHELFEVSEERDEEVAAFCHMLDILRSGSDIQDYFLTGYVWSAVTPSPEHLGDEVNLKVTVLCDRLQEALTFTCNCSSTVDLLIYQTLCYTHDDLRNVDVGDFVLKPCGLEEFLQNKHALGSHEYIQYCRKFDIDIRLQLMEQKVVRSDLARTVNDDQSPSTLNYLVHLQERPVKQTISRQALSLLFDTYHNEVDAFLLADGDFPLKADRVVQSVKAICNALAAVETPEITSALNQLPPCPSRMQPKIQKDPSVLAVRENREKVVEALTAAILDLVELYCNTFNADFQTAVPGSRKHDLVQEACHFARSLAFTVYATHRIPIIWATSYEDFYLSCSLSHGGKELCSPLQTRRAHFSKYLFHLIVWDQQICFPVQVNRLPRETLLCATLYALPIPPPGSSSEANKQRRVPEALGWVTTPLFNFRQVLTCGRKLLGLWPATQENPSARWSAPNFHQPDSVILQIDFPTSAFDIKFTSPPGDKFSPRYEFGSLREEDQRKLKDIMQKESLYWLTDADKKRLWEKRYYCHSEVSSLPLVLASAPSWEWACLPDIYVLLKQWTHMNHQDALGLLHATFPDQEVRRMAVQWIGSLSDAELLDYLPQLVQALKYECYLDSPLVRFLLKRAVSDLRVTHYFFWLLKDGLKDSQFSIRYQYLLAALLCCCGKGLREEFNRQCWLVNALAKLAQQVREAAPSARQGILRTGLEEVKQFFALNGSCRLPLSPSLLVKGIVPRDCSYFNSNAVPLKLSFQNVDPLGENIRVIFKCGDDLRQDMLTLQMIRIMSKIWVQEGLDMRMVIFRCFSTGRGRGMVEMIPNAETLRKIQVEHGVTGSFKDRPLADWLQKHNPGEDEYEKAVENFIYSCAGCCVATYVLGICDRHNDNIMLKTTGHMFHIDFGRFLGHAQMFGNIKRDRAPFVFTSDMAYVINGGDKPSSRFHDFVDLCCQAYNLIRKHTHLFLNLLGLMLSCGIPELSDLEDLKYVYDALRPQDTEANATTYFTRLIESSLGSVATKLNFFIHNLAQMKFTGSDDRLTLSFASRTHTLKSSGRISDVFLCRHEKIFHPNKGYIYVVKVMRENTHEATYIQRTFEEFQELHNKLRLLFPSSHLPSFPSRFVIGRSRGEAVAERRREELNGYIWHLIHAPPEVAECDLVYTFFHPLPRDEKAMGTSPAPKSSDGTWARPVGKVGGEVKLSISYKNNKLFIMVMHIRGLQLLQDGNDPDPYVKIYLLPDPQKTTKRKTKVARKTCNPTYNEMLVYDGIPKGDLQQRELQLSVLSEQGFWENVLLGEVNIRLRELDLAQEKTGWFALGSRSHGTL
T5 sequence (P49137 whole entry): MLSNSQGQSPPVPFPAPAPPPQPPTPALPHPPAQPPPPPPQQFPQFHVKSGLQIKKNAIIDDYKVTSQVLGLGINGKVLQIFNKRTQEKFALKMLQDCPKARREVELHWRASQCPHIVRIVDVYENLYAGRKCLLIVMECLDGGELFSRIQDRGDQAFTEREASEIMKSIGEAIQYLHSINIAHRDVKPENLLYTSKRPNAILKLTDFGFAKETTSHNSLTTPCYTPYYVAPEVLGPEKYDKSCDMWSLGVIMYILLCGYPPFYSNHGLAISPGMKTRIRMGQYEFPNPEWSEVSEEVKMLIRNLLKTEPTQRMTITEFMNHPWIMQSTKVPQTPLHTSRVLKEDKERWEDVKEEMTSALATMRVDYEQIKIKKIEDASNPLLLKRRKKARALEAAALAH
T1 sequence (P49840 whole entry): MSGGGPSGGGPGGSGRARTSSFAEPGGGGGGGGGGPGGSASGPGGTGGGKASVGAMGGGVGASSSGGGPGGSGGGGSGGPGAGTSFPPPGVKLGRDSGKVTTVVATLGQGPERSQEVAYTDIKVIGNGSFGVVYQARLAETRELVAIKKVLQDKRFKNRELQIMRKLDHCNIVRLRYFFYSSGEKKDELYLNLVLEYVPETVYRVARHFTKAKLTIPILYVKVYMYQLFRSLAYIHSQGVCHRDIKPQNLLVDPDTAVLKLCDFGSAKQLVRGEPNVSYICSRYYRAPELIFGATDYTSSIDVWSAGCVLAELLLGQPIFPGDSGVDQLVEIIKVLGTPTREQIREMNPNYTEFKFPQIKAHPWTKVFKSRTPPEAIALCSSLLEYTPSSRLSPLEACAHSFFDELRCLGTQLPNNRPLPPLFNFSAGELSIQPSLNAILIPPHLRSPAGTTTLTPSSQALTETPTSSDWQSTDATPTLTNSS

SMILES | remaining binding at 10 µM [1] [%] | remaining binding at 10 µM [2] [%] | remaining binding at 10 µM [3] [%] | remaining binding at 10 µM [4] [%] | remaining binding at 10 µM [5] [%] | remaining binding at 10 µM [6] [%] | remaining binding at 10 µM [7] [%] | remaining binding at 10 µM [8] [%]
CCN1CCN(Cc2ccc(NC(=O)c3ccc(C)c(NC(=O)c4cncc(-c5cccs5)c4)c3)cc2C(F)(F)F)CC1 [ALW-II-41-27] | > 30 | 0.1 | > 30 | 1.2 | > 30 | 1.8 | > 30 | 1.4
CCN1CCN(Cc2ccc(NC(=O)c3ccc(C)c(/C=C/c4cnc5[nH]ccc5c4Cl)c3)cc2C(F)(F)F)CC1 [HG-6-63-01, (E)-3-(2-(4-chloro-1H-pyrrolo[2,3-b]pyridin-5-yl)vinyl)-N-(4-((4-ethylpiperazin-1-yl)methyl)-3-(trifluoromethyl)phenyl)-4-methylbenzamide] | > 30 | 0.1 | > 30 | 5.9 | > 30 | 17 | > 30 | 0.4
CCN1CCN(Cc2ccc(NC(=O)c3ccc(C)c(C#Cc4cccnc4)c3)cc2C(F)(F)F)CC1 [XMD15-44] | > 30 | 0.05 | 88 | 0 | > 30 | 1.6 | 100 | 8.2
